# Measured values taken from article PMC11510156, “Rutin and Physalis peruviana Extract: Population Pharmacokinetics in New Zealand Rabbits” (Pharmaceutics, 2024).
# Experiments:
# [1] = Population PK model of rutin after i.v. administration (two-compartment, first-order elimination); type: in vivo, New Zealand White rabbits
# Protocol: PopPK analysis was performed using the Monolix® module of the MonolixSuite™. Two models were established, one for rutin after i.v. administration of the treatments, and one for Quer, produced by deconjugation of Q3OG and Q3OS, after p.o. administration of the treatments. Structural models with one or two compartments and first-order elimination were assessed, incorporating a double first-order absorption for p.o. experiments. An analysis of covariate was conducted, using the source of rutin as categorical covariate (pure compound or extract), which was incorporated into the model if statistically significant (p < 0.05 for Pearson’s and Wald tests with stochastic approximation). Correlations between random effects of the parameters were also examined and included in the model when significant (p < 0.05 for t-test). The final model, along with the residual error model, was chosen based on criteria including individual fit plots, Akaike’s information criteria (AIC) values, observation-versus-prediction plot analysis, precision of estimated parameters, and evaluation of residual distribution. The variability on fixed-effect model parameters was described by Equation (4):(4) Pi=Ppop+β+η(i,p), where Pi is the value of the individual PK parameter, Ppop is the value of the population PK parameter, β represents the variability due to the covariate extract if significant, and η is the individual deviation with respect to the population. Models were parametrized in micro-constants, i.e., elimination rate constant (k), distribution rate constant from compartment 1 to compartment 2 (k12), and distribution rate constant from compartment 2 to compartment 1 (k21). When necessary, Cl was calculated as follows: (5) Cl=k×V, where V is the volume of distribution of first compartment. The model was internally validated through the visual predictive check (VPC) with 1000 simulated data points. Validation of structural, variability, and covariate models was considered achieved if the observed percentiles remained within the corresponding prediction intervals estimated across all simulated data and computed with a level of 90%. In addition, the parameter uncertainty was assayed by bootstrap analysis using 1000 runs. The model was considered stable, robust, and accurate if the mean parameters of the model were close to those estimated via bootstrap and fell within the 95% confidence interval (CI 95%).
# [2] = Noncompartmental PK of rutin after intravenous administration of pure rutin or P. peruviana extract; type: in vivo, New Zealand White rabbits
# Protocol: (§1) Twenty male New Zealand White rabbits were obtained from Sentagro E.A.T (Cachipay, Cundinamarca, Colombia), who certificated their origin and traceability. The animals were between 9 and 10 weeks old, weighing between 1.8 and 2.2 kg. They were allowed to acclimate for at least 5 days under constant temperature conditions (22 ± 1 °C), with light/dark cycles of 12 h, at the animal facility of the Department of Pharmacy of the Universidad Nacional de Colombia (UNAL), where the experiments were conducted. They were provided with water and food ad libitum until 12 h prior to the experiment, when they were fasted. The study protocol was approved by the ethics committee of the science faculty of the UNAL (Act 06, 2015, project 40831, 22 June 2015).
# (§2) Rabbits were divided into four groups to receive either pure rutin or P. peruviana extract intravenously (i.v.) or orally (p.o.). The dose of rutin i.v. was set at 0.37 mg/kg, based on the highest quantity of the compound able to dissolve in 1 mL of the diluent used. The dose of extract i.v. was 100 mg/kg, a reference dose for animal experimentation in our group, which also allowed the solubilization of rutin in the extract within the administration volume. Oral rutin was administrated at a dose of 100 mg/kg, and oral extract was administrated at a dose of 500 mg/kg, which is an active dose from prior experiments. Based on the rutin content in the extract, the doses of extract used were equivalent to 1.48 mg/kg and 7.4 mg/kg of rutin for the i.v. and p.o. experiments, respectively.
# (§3) For intravenous administration, solutions of rutin in sodium chloride solution (0.9% NaCl) were prepared at a concentration of 0.74 mg/mL, using DMSO (<0.1% of the final volume) to dissolve the compound. Meanwhile, the extract was directly dissolved in 0.9% NaCl at a concentration of 200 mg/mL. For oral administration, pure rutin and the extract were suspended in water near the time of the experiment to achieve concentrations in suspension of 200 and 1000 mg/mL, respectively. Vortexing and sonication were applied 3–4 times for 15 min each to all preparations. Each animal received 0.5 mL/kg of the treatment via the marginal ear vein (i.v.) or by oral gavage (p.o.).
# (§4) Samples of blood (approximately 250 µL) were withdrawn from the marginal ear vein and collected in heparinized tubes at various time points. For experiments with i.v. administration, sampling was conducted at times 0, 0.083, 0.166, 0.333, 0.5, 0.75, 1, 1.5, 2, 3, 4, 6, 8, 12, and 24 h. For experiments with p.o. administration, sampling was performed at times 0, 0.083, 0.25, […], 0.75, 1, 2, 3, 4, 6, 8, 12, 24, and 48 h (Figure 1). The blood samples were then centrifuged at 3200× g and at 4 °C for 15 min to separate plasma, which was transferred to a new tube. The plasma was promptly acidified to pH 4 using 0.5 µL of 42.5% formic acid and then frozen at −80 °C until further analysis.
# (§5) The quantification of analytes was carried out using a validated UHPLC-UV method on a Chromaster RS chromatograph (Hitachi, Tokyo, Japan). Briefly, plasma samples (100 µL) were supplemented with the internal standard, chrysin (1000 ng/mL), and divided into two tubes. One tube was immediately extracted and injected into the chromatographic system to quantify rutin. The plasma in the other tube first underwent a deconjugation reaction with 120 Fishman units of a mixture of the enzymes β-glucuronidase/arylsulfatase at pH 5.5 and 37 °C for 30 min. The product of the reaction, Quer, was also quantified, representing rutin metabolites Q3OG and Q3OS. The analytes in the plasma samples, rutin and Quer, were extracted using the protein precipitation method with twice the volume of methanol; proteins were then separated by centrifugation at 1200× g and 4 °C for 15 min, and the supernatant was used for instrumental analysis.
# (§6) Concentrations–time data were tabulated and processed using MonolixSuite™ 2024R1 (Lixoft®, Paris, France). […]
# [3] = Noncompartmental PK of rutin after oral administration of pure rutin or P. peruviana extract; type: in vivo, New Zealand White rabbits
# Protocol: as §1, §2, §3, §4, §5, §6
# [4] = parameters: method as in PMID 33921404; conditions: rutin; popPK, Wistar rats; cited from earlier work
# [5] = parameters: method as in PMID 32162346; conditions: low solubility and low permeability; cited from earlier work
# [6] = Simple allometry prediction of human V and Cl of rutin; parameters: species or system humans
# Description: Individual pharmacokinetics parameters estimated by PopPK analysis in this study, along with those from a previous study conducted by the group in Wistar rats, were used to extrapolate V and Cl to humans using the simple allometry Equation (6):(6) Y=a×W^b, where Y is the PK parameter in humans, W is the human weight, typically set at 70 kg, and a and b are the coefficient and the exponent of scaling, respectively. These last two values are obtained from the relationship between the PK parameter and body weight across different species. Theoretically, b is fixed to 0.75 for Cl and 1.0 for Vd, although it can vary depending on the drug and population under study.
# [7] = male, New Zealand White, rabbit, plasma, iv, rutin, pure rutin 0.37 mg/kg, extract equivalent to 1.48 mg/kg of rutin, NCA, mean ± SD, n = 5
# [8] = rutin, i.v., pure rutin 0.37 mg/kg, extract equivalent to 1.48 mg/kg of rutin, NCA, mean ± SD, n = 5
# [9] = male, New Zealand White, rabbit, plasma, po, rutin, pure rutin 100 mg/kg, extract equivalent to 7.4 mg/kg of rutin, NCA, mean ± SD, n = 5
# [10] = male, New Zealand White, rabbit, po, rutin in plasma, pure rutin 100 mg/kg, extract equivalent to 7.4 mg/kg of rutin, NCA, mean ± SD, n = 5
# [11] = rutin, p.o., pure rutin 100 mg/kg, extract equivalent to 7.4 mg/kg of rutin, NCA, mean ± SD, n = 5
structure (smiles),measurement,setting,value
"C[C@@H]1O[C@@H](OC[C@H]2O[C@@H](Oc3c(-c4ccc(O)c(O)c4)oc4cc(O)cc(O)c4c3=O)[C@H](O)[C@@H](O)[C@@H]2O)[C@H](O)[C@H](O)[C@H]1O [Pure Rutin, quercetin-3-O-rutinoside]",clearance,"[1]; New Zealand White, rabbit, plasma, intravenous, 0.37 mg/kg, popPK individual parameters, Cl = k × V, per animal, read-out: Cl, rabbit parameter (converted)",3.13 mL/min
same,"k12 (distribution rate constant compartment 1 to 2), population value","[1]; i.v., popPK",3.666 h⁻¹
same,"k21 (distribution rate constant compartment 2 to 1), population value","[1]; i.v., popPK, no extract covariate",3.777 h⁻¹
same,Vd,"[1]; male, New Zealand White, rabbit, plasma, iv, popPK, read-out: V (volume of distribution of first compartment), population value",0.048 L/kg
same,k el,"[1]; male, New Zealand White, rabbit, plasma, iv, popPK, read-out: k (first-order elimination rate constant), population value (converted)",0.000534 s⁻¹
same,"V, rabbit parameter","[1]; popPK individual parameters, per animal",0.096 L
same,time post-dosage up to which rutin was quantified,[2]; i.v.,up to 6 h
same,"rutin plasma level, upper end of quantified range","[2]; i.v., mean ± SEM",4960 ± 340 ng/mL
same,AUC(0-inf),"[2]; male, New Zealand White, rabbit, iv, rutin in plasma, pure rutin 0.37 mg/kg, extract equivalent to 1.48 mg/kg of rutin, NCA, mean ± SD, n = 5",4740 ± 814 ng·h/mL
same,Vd,"[2]; male, New Zealand White, rabbit, plasma, iv, 0.37 mg/kg, rutin, i.v., pure rutin 0.37 mg/kg, extract equivalent to 1.48 mg/kg of rutin, NCA, mean ± SD, n = 5, read-out: Vss",0.29 ± 0.053 L/kg
same,Vd,"[2]; male, New Zealand White, rabbit, plasma, iv, 0.37 mg/kg, rutin, i.v., pure rutin 0.37 mg/kg, extract equivalent to 1.48 mg/kg of rutin, NCA, mean ± SD, n = 5, read-out: Vz",0.084 ± 0.028 L/kg
same,concentration at 6 h,"[2]; male, New Zealand White, rabbit, plasma, iv, 0.37 mg/kg, i.v., mean ± SEM, at last quantified time, read-out: rutin plasma level, lower end of quantified range",105 ± 24 ng/mL
same,half-life,"[2]; male, New Zealand White, rabbit, plasma, iv, rutin, i.v., pure rutin 0.37 mg/kg, extract equivalent to 1.48 mg/kg of rutin, NCA, mean ± SD, n = 5, read-out: t1/2 (terminal half-life) (converted)",0.79 ± 0.381 h
same,k el,"[2]; male, New Zealand White, rabbit, plasma, iv, rutin, i.v., pure rutin 0.37 mg/kg, extract equivalent to 1.48 mg/kg of rutin, NCA, mean ± SD, n = 5, read-out: λz (converted)",0.000294 s⁻¹
same,MRT,[2]; [7],3.63 ± 0.163 h
same,clearance,[2]; [7],1.32 mL/min/kg
same,Cp^0 (plasma concentration at zero time),"[2]; rutin in plasma, i.v., pure rutin 0.37 mg/kg, extract equivalent to 1.48 mg/kg of rutin, NCA, mean ± SD, n = 5",4960.02 ± 760.234 ng/mL
same,AUC0–∞/dose,[2]; [8],12.90 ± 2.214 h/L/kg
same,Cp^0/dose,[2]; [8],13.49 ± 2.068 L⁻¹ kg⁻¹
same,bioavailability,"[3]; male, New Zealand White, rabbit, plasma, po, p.o. vs i.v., pure rutin 100 mg/kg, extract equivalent to 7.4 mg/kg of rutin, read-out: F (absolute bioavailability of rutin)",0.6%
same,Vd/F,"[3]; male, New Zealand White, rabbit, plasma, po, rutin, p.o., pure rutin 100 mg/kg, extract equivalent to 7.4 mg/kg of rutin, NCA, mean ± SD, n = 5, read-out: Vz/F",59.1 ± 11.4 L/kg
same,k el,"[3]; male, New Zealand White, rabbit, plasma, po, rutin, p.o., pure rutin 100 mg/kg, extract equivalent to 7.4 mg/kg of rutin, NCA, mean ± SD, n = 5, read-out: λz (converted)",6.5e-05 s⁻¹
same,CL/F,[3]; [9],226 mL/min/kg
same,MRT,[3]; [9],11.8 ± 0.916 h
same,AUC(0-inf),[3]; [10],7790 ± 2110 ng·h/mL
same,Cmax,[3]; [10],1170 ± 371 ng/mL
same,Tmax,[3]; [10],0.75 h
same,time of second peak of rutin plasma concentration (double peaks),"[3]; p.o., Cmax here for the extract",4.0 h
same,time of first peak of rutin plasma concentration (double peaks),"[3]; p.o., Cmax here for the pure compound",0.75 h
same,AUC0–∞/dose,[3]; [11],0.078 ± 0.021 h/L/kg
same,Cmax/dose,[3]; [11],0.012 ± 0.004 L⁻¹ kg⁻¹
same,"Cl, rat parameter",[4],0.031 L/h
same,"V, rat parameter",[4],0.024 L
same,Biopharmaceutical Classification System class,[5],Class IV
same,"V, human parameter (experimental b)","[6]; 70 kg, b exponent from the data",1.410 L
same,"Cl, human parameter (theoretical b)","[6]; 70 kg, theoretical b 0.75",2.323 L/h
same,"V, human parameter (theoretical b)","[6]; 70 kg, theoretical b 1.0",3.988 L
same,"Cl, a coefficient of allometric scaling","[6]; Y = a × W^b, rats and rabbits",0.096
same,"Cl, b exponent of allometric scaling","[6]; Y = a × W^b, rats and rabbits",0.9
same,"V, a coefficient of allometric scaling","[6]; Y = a × W^b, rats and rabbits",0.057
same,"V, b exponent of allometric scaling","[6]; Y = a × W^b, rats and rabbits",0.8
same,clearance,"[6]; human, 70 kg, b exponent from the data, read-out: Cl, human parameter (experimental b) (converted)",89.8 mL/min
